This passage reports EC50 and Ki results from patent publication US8592413B2, “Therapeutic substituted cyclopentanes” (Allergan, Inc., priority 2008, dated 2013).

Molecules are shown by their SMILES.

Usually EC50 stands for the concentration needed to bring the measured effect to its halfway point. Low readings indicate greater potency, high ones weaker potency. What is called Ki is the dissociation constant of the complex between target and ligand, obtained from inhibition or displacement. Low values mean tighter binding, high ones weaker binding.

The target of test [1] is T1, EP2 (Homo sapiens, UniProt P43116). The test can be described thus: EP2 cAMP. Format: cell-based. From the text: (§1) US 2007/0129552, incorporated by reference herein, describes the methods used to obtain the in vitro data in the table below.
T1 sequence (P43116 whole entry): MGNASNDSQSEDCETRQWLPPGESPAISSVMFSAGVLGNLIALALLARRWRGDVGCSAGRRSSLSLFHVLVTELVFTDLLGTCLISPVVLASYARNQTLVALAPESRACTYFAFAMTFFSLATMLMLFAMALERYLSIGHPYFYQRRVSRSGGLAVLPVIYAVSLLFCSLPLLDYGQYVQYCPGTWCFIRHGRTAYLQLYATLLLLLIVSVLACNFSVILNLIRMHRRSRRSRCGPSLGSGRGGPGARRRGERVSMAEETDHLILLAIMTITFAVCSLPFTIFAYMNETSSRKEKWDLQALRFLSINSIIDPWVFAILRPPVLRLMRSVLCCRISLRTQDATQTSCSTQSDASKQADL
Test [2] addresses T1, EP2. The test is described as follows: EP2 Ki (binding).
Description: as §1

The next test deals with T2, hDP (Homo sapiens, UniProt Q13258).
T2 sequence (Q13258 1-359): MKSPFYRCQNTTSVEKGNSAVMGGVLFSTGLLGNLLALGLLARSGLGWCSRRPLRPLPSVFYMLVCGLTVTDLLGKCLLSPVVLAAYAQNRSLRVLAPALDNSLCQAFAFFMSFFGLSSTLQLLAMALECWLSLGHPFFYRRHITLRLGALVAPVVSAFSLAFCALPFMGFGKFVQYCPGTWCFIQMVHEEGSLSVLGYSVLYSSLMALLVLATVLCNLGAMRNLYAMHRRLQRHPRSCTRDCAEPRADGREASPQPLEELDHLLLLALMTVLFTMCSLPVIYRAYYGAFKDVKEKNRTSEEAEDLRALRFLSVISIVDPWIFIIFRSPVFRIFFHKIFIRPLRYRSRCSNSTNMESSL
The test can be described thus: Other receptors: hDP EC50. In kind it is cell-based.
Description: as §1

The target in test [3] is T1, EP2. The test can be described thus: EP2 flipr. In kind it is cell-based.
Description: as §1

Test [4] deals with T3, EP4 (Homo sapiens, UniProt P35408). The test can be described thus: EP4 flipr. In kind it is cell-based.
T3 sequence (P35408 whole entry): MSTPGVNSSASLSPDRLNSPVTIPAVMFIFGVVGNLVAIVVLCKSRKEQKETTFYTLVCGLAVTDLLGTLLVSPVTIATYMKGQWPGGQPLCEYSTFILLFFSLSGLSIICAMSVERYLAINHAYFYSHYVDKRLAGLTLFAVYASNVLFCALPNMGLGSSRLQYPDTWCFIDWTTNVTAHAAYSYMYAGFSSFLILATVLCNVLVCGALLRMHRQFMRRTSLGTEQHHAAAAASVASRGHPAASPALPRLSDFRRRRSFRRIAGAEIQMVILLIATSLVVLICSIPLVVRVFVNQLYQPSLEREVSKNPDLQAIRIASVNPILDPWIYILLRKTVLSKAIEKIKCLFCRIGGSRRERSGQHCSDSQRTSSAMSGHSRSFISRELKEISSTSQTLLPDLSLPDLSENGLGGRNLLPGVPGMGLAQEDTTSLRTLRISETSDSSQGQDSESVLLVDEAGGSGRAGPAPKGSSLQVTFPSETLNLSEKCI
Description: as §1

In test [5] the target is T3, EP4. The test can be described thus: EP4 KI (binding).
Description: as §1

The next test deals with hFP (Homo sapiens, UniProt P43088). The test can be described thus: Other receptors: hFP EC50. In kind it is cell-based.
Chain of hFP (P43088 whole entry): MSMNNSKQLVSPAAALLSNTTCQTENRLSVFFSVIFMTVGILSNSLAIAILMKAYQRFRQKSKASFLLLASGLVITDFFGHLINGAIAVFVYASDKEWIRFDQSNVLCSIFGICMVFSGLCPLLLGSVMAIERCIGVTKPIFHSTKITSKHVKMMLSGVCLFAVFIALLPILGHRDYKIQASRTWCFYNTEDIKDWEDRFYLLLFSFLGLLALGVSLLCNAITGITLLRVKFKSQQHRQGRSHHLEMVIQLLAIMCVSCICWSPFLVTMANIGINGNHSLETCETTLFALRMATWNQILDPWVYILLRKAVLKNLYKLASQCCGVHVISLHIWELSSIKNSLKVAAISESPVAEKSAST
Description: as §1

The target in another test is T4, hEP1 (Homo sapiens, UniProt P34995).
T4 sequence (P34995 1-402): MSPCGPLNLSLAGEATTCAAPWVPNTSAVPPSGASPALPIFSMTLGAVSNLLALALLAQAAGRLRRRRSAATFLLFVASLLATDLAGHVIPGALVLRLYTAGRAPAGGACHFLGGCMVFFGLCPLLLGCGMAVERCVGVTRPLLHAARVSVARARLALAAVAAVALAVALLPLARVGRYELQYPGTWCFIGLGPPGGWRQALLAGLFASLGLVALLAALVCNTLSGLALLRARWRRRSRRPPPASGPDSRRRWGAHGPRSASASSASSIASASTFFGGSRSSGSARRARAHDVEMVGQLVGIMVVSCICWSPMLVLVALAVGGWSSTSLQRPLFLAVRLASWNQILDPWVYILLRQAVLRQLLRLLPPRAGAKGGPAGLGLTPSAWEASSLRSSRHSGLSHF
The test can be described thus: Other receptors: hEP1 EC50. Format: cell-based.
Description: as §1

In a further test the target is T5, hEP3A (Homo sapiens, UniProt P43115).
T5 sequence (P43115 1-390): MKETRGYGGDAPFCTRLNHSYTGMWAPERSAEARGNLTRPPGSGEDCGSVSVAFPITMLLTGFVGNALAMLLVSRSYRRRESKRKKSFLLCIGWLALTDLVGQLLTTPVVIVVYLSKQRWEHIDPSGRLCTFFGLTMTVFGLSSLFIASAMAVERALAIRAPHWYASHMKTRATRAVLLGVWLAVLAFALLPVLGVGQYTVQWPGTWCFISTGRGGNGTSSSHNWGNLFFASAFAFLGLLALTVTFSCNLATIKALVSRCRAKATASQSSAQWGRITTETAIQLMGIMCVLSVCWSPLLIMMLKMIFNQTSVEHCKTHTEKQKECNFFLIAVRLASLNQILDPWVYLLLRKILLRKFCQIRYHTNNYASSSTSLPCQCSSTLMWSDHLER
The test is described as follows: Other receptors: hEP3A EC50. In kind it is cell-based.
Description: as §1

For a further test, the target named is T6, hTP (Homo sapiens, UniProt P21731).
T6 sequence (P21731 1-343): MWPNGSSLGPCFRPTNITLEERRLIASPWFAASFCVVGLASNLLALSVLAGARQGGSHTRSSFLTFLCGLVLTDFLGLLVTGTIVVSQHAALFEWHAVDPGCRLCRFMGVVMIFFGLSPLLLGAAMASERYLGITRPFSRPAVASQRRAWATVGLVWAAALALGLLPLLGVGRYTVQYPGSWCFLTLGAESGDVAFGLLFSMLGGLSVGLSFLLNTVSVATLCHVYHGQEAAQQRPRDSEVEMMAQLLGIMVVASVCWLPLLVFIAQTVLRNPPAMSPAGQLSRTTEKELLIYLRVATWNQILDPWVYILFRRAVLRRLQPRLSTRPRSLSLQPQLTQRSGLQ
The test is described as follows: Other receptors: hTP EC50. In kind it is cell-based.
Description: as §1

The target of another test is hIP (Homo sapiens, UniProt P43119). The test can be described thus: Other receptors: hIP EC50. In kind it is cell-based.
Chain of hIP (P43119 whole entry): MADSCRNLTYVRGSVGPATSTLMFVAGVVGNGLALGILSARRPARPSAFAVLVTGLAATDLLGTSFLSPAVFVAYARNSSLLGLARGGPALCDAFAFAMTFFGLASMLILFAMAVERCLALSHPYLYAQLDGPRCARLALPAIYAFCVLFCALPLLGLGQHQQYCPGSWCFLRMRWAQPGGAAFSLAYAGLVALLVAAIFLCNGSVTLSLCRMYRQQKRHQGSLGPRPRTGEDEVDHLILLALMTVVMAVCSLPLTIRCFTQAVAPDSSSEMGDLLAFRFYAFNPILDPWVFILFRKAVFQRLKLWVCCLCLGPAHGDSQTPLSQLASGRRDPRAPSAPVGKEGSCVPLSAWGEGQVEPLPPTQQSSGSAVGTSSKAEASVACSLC
Description: as §1

Regarding `CN(Cc1ccccc1)C[C@@H]1[C@@H](CCCc2ccc(C(=O)O)s2)[C@H](Cl)C[C@H]1O`, the half-maximal effective concentration (EC50) was 0.0036 µM on EP2 [1] and 5620 nM at hDP. The inhibition constant Ki on EP2 [2] worked out at 0.024 µM.
`CCc1cccc(CCC[C@@H]2[C@@H](CCCc3ccc(C(=O)O)s3)[C@H](Cl)C[C@H]2O)c1`: the EC50 is 13.8 µM on EP2 [3], 0.0009 µM on EP2 [1] and over 10 µM on EP4 [4]. The inhibition constant (Ki) was found to be 0.004 µM at EP2 [2] and 1.84 µM at EP4 [5].
For the compound `O=C(O)CCC/C=C\C[C@@H]1[C@@H](COCc2cccc(C(F)(F)F)c2)[C@H](O)C[C@H]1Cl`, the EC50 on EP2 [3] came out at 0.195 µM; on EP2 [1], 0.005 µM; at EP4 [4], 2.33 µM; on hFP, 22500 nM; at hEP1, 97 nM; at hEP3A, 88 nM. The EC50 at hTP was 11 nM; on hIP it was 7 nM; at hDP, over 10000 nM. For the same compound, the figures for the Ki on EP2 [2] and on EP4 [5] were 0.214 µM and 3.17 µM, respectively.
For `O=C(O)c1ccc(CCC[C@@H]2[C@@H](C=C=Cc3ccccc3)[C@H](O)C[C@H]2Cl)s1`, the results for the half-maximal effective concentration (EC50) at EP2 [1], on EP4 [4] and at hDP were 0.0017 µM, 11.1 µM and 10200 nM, respectively. Also, the Ki was 0.006 µM at EP2 [2] and 0.715 µM on EP4 [5].
Turning to `O=C(O)c1ccc(CCC[C@@H]2[C@@H](CCCc3cc(Cl)cc(Cl)c3)[C@H](O)C[C@H]2Cl)s1`, the EC50 on EP2 [3] is 9.92 µM; at EP2 [1], 0.001 µM; at EP4 [4] it was 10.1 µM; at hEP3A it was 8060 nM; on hTP, 7110 nM. Besides, the inhibitory constant (Ki) was determined as 0.0006 µM on EP2 [2] and 0.999 µM at EP4 [5].
Turning to `O=C(O)c1ccc(CCC[C@@H]2[C@@H](CCCc3cccc(C(F)(F)F)c3)[C@H](O)C[C@H]2Cl)s1`, the concentration for a half-maximal effect (EC50) was 2.52 µM at EP2 [3], 0.0003 µM at EP2 [1] and 4260 nM on hEP1. Besides, the inhibition constant Ki came out at 0.0005 µM on EP2 [2] and 0.74 µM on EP4 [5].
For `O=C(O)c1ccc(CCC[C@@H]2[C@@H](CCCc3ccccc3)[C@H](O)C[C@H]2Cl)s1`, the values for the EC50 at EP2 [1], at EP4 [4] and on hDP were 0.0006 µM, 4.96 µM and 6780 nM, respectively. The Ki is 0.003 µM on EP2 [2] and 2.16 µM at EP4 [5].
`O=C(O)c1ccc(CCC[C@@H]2[C@@H](CNCc3ccccc3)[C@H](O)C[C@H]2Cl)s1` yielded a concentration giving a half-maximal response (EC50) at EP2 [1] of 0.006 µM. Moreover, the Ki on EP2 [2] was determined as 0.143 µM.
As for `O=C(O)c1ccc(CCC[C@@H]2[C@@H](C=C=Cc3cccc(C(F)(F)F)c3)[C@H](O)C[C@H]2Cl)s1`, the figures for the EC50 on EP2 [3] and at EP2 [1] were 3.26 µM and 0.0017 µM, respectively. At EP2 [2], this compound returned a Ki of 0.011 µM.
As to `CCc1cccc(COC[C@@H]2[C@@H](CCCc3ccc(C(=O)O)s3)[C@H](Cl)C[C@H]2O)c1`, the half-maximal effective concentration (EC50) on EP2 [3] is 0.255 µM; at EP2 [1], 0.0005 µM; at EP4 [4], 6.54 µM; at hTP it was 2520 nM; on hDP it was over 10000 nM. The inhibitory constant (Ki) on EP2 [2] was 0.003 µM; on EP4 [5] it was 0.606 µM.
